From US20110281804A1, “PEPTIDIC AND PEPTIDOMIMETIC COMPOUNDS FOR REGULATING AUTOPHAGY” (FONDAZIONE SANTA LUCIA, priority 2008, published 2011)

Columns and labels:
AMBRA1-DIC interaction = test: Co-immunoprecipitation of AMBRA1 with dynein intermediate chain (DIC) after microtubule disruption; format: cell-based, human; conditions: drugs which interfere with microtubule polymerisation
Description: To this end, coimmunoprecipitation experiments were performed in 2F cells, using an antibody specific for the dynein intermediate chain (DIC). It was observed that, under control conditions, AMBRA1 is associated with DIC and is therefore part of the wider dynein machinery (FIG. 2b, third lane). […] DIC immunodepletion experiments confirmed that AMBRA1 is still associated with DLC1 after being released from DIC. On the other hand, only a fraction of DLC1 interacts with AMBRA1, since most DLC1 is still present in the complex, where it plays alternative functions (FIG. 2b).
It was then checked whether disruption of the microtubule network could interfere with the dynamics of AMBRA1 binding to the dynein motor complex.
In immunoprecipitation experiments, cells or tissues were lysed in HEMG buffer (25 mM Hepes pH 8.0, 100 mM NaCl, 25 mM MgCl2, 0.5% Triton X-100, 0.1 mM EDTA 10% glycerol) plus protease and phosphatase inhibitors (Protease inhibitor cocktail plus 1mM Sodium Fluoride, 1 mM Sodium orthovanadate, 1 mM Sodium molibdate; Sigma-Aldrich). […]

[1] = molecular target: AMBRA1 full length (human, wild type) (UniProt Q9C0C7)
HEK293 cells = test: Autophagy induction by peptides in HEK293 cells, Western blot of LC3 and p62; format: cell-based; conditions: 1-16 hours; for level of autophagy induced by the treatment: peptide 100-200 μM in culture medium, Western blot of LC3 and p62
Text: In order to deregulate the AMBRA1-DLC1 interaction, three peptides (SEQ ID NO:1, SEQ ID NO:2 and SEQ ID NO:3) were selected for their likelihood to maintain the α-helix structure. SEQ ID NO:3 and SEQ ID NO:1 presented substitutions of the neutral residues of leucine into lysine, to increase the charge of the peptides (FIG. 5). The three peptides were synthesized in vitro with the addition of 11 arginine residues at the N-terminus and they were covalently conjugated with the FITC fluorochrome. The arginine residues allow an efficient incorporation of the peptides within the cells, whereas the FITC allows visualization of the peptides inside the cells and permit to monitor their stability upon time. Increasing doses of the peptides, respectively SEQ ID NO:3, SEQ ID NO:1 and SEQ ID NO:2 (100-200 μM) were added to the culture medium of HEK293 cells for increasing time (1-16 hours). The level of autophagy induced by the treatment was monitored by Western blot analyses of known markers of this process, such as LC3 and p62. […] Although limited, this effect is somewhat more desirable than stronger effects, because it avoids massive autophagy that would likely results in cell death in vivo.
Proteins were separated on NuPAGE Bis-Tris gel (Invitrogen) and electroblotted onto nitrocellulose (Protran, Schleicher & Schuell) or PVDF (Millipore) membranes. Blots were incubated with primary antibodies in 5% non-fat dry milk in TBS plus 0,1% Tween20 overnight at 4° C. Detection was achieved using horseradish peroxidase-conjugate secondary antibody (Biorad) and visualised with ECL plus (Amersham Bioscience).

MyD88 = MyD88 (Homo sapiens, UniProt Q99836); conditions: Loiarro et al., J. Leukocyte Biology 2007; cited from earlier work
Chain of MyD88 (Q99836 whole entry, species assumed): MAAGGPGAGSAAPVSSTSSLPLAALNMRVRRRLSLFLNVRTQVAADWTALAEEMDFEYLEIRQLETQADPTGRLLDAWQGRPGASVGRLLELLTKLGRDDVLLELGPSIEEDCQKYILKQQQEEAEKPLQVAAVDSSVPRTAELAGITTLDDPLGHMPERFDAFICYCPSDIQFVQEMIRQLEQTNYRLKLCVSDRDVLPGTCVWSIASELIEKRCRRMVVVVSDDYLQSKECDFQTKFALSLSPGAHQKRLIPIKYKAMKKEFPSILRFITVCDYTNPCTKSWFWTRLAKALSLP

Chain of AMBRA1 full length (human, wild type) (Q9C0C7 other isoform, or with tags, fused parts or gaps): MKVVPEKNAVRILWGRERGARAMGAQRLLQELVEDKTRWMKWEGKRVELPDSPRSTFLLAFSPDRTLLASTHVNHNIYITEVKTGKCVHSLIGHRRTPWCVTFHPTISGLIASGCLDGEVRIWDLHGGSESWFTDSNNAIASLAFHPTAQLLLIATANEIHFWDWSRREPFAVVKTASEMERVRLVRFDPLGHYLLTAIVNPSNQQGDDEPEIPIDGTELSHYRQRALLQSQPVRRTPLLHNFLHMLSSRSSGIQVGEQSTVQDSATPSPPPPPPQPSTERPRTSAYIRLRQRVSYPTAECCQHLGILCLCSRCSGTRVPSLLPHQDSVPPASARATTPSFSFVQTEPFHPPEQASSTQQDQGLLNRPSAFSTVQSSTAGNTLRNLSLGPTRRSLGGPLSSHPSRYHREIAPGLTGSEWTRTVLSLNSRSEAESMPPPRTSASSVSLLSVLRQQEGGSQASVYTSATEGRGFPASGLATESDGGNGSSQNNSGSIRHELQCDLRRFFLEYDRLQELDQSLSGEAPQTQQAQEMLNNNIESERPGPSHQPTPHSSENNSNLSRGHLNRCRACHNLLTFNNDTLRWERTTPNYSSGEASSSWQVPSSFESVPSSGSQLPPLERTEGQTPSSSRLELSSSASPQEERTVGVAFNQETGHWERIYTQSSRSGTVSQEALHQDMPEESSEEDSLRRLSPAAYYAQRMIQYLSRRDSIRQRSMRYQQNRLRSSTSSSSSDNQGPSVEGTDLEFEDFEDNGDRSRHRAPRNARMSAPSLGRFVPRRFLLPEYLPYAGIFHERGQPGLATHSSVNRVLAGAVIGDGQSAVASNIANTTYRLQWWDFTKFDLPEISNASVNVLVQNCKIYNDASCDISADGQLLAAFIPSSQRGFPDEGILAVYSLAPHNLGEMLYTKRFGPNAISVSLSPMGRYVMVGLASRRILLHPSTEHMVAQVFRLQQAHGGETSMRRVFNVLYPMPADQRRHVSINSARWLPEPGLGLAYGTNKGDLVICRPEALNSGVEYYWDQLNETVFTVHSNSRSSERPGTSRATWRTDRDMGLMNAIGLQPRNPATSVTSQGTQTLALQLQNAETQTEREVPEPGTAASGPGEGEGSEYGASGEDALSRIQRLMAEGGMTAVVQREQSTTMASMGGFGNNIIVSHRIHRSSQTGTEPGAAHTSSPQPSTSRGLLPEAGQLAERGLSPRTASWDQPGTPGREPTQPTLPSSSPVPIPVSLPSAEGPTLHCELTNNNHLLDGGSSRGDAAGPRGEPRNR

Row | Compound | AMBRA1-DIC interaction (AMBRA1-DIC interaction) | level of autophagy induced by the treatment (HEK293 cells) | other results
1 | CC[C@]1(O)C[C@@H]2CN(CCc3c([nH]c4ccccc34)[C@@](C(=O)OC)(c3cc4c(cc3OC)N(C)[C@H]3[C@@](O)(C(=O)OC)[C@H](OC(C)=O)[C@]5(CC)C=CCN6CC[C@]43[C@@H]65)C2)C1 [Vinblastine] | did not impair | – | –
2 | COC(=O)Nc1nc2ccc(C(=O)c3cccs3)cc2[nH]1 [Nocodazole] | did not impair | – | –
3 | ULK1 wild type, myc-tagged (immunopurified complex) | – | – | in vitro kinase assay (32P labelling, autoradiography) [1]: AMBRA1 is phosphorylated by an ULK1 immunopurified complex
4 | SEQ ID NO:1: Peptide with TQT triplet followed by α-helix residues; leucine residues substituted into lysine to increase charge (SQGTQTKAKQK; listed as Homo sapiens) | – | induced an increase in autophagy | p62 protein levels (HEK293 cells; 100-200 μM, Western blot (FIG. 6A)): decrease; shorter isoform of LC3 (HEK293 cells; 100-200 μM, Western blot (data not shown)): increase
5 | NC(=O)[C@H]1CCS[C@@H]2C[C@]3(CCCN3C(=O)Cc3ccc(NC(=O)COc4ccc(Cl)cc4Cl)cc3)C(=O)N12 [ST2825] | – | – | activity and specificity of inhibition compared with the original MyD88 inhibitory peptide (MyD88): maintained the same activity and specificity of inhibition
6 | SEQ ID NO:3: Peptide selected to maintain α-helix structure; leucine residues substituted into lysine to increase charge (TQTKAKQKQNAETQTER; listed as Homo sapiens) | – | not so effective at the doses used | –
